Source: US5082828A, “Eclosion hormone peptides” (Sandoz Ltd., priority 1991, dated 1992)

Assays:
[1] = test system: pharate adult H. virescens; parameters: species or system Heliothis virescens; details: in vivo
Description: The biological activity of EH in fractions from each purification step is detected using a pharate adult H. virescens in vivo assay, similar to that described by Fugo (1983) Appl. Ent. Zoo. 18:540-44 and Truman (1973) Biol. Bull. 14:44:200-211, both of which are incorporated by reference. Insects are injected in the dorsal thorax with 5 μl aliquots dissolved in physiological saline, approximately 7 hr before normal eclosion, which occurs just after the onset of darkness. Moths eclosing within 3 hr of injection are scored as receiving EH, a positive response.

[2] = test system: late second stadium M. sexta; format: in vivo, Manduca sexta
Description: The biological activity of isolated EH is assayed as follows. Late second stadium M. sexta are selected for assay when third stadium mandibles are visible through the fluid-filled second stadium head capsule. Development of these larvae, held at 31° C., is checked at 15 min intervals until an air bubble first appears in the head capsule. "Air bubble" larvae are immediately injected in the dorsal abdomen with 1 μl of the test fractions, and time to molt of treated and controls is compared at room temperature ~21° C.). Mean time to molt for EH-affected larvae is 50 min; that for controls is 109 min. Purified EH is active at 0.1 ng per pharate adult H. virescens, and at 0.01 ng per second stadium M. sexta.

[3] = test system: larval molt; details: EH present in the hemolymph during a sensitive period when it is normally absent; cited from earlier work

- dose evoking positive EH-like response (active dose) [1]: 0.1 ng per pharate adult
- dose evoking positive EH-like response (active dose) ([2]; in vivo): 0.01 ng per second stadium M. sexta
Substance: Eclosion hormone [EH]
- mean time to molt ([2]; EH-affected larvae at room temperature ~21° C., controls 109 min): 50 min
- effect on larval molt [3]: block the larval molt completely
